In PMC12203428, “Discovery of Clonixeril as a Sub-Femtomolar Modulator of the Human STING Receptor” (ACS Central Science, 2025):
Values belong to the molecule of their own block, whether it stands above or below them.

How the values were obtained:
[1] = tested on: IFN-β expression in HEK293 cells; assay: HEK293 real-time qPCR for IFN-β; conditions: 4 μM 2′,3′-cGAMP 3 h, positive control
Protocol: IFN-β expression levels were measured using real-time qPCR.
HEK293 cells were seeded at 700,000 cells per 60 mm plate confluency and treated 36 h later.

[2] = target: T1, hSTING CTD (STING R232 variant) (Homo sapiens, UniProt Q86WV6, H232R); assay: Microscale thermophoresis; assay type: binding; conditions: for Activity in MST assay: competition with 2′,3′-cGAMP
T1 construct: 6X-His tagged hSTING^WT, R232 variant, CTD protein was purchased; purchased Invivogen (USA) or Cayman Chemicals (USA)
T1 sequence (Q86WV6 153-340 H232R): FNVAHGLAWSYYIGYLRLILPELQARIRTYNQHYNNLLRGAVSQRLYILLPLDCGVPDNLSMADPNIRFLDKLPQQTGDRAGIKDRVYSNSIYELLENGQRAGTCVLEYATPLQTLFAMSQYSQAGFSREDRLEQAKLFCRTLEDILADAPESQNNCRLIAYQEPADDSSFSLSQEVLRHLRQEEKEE
Protocol: Small molecule affinities at subpicomolar concentrations are typically difficult to determine by MST due to the inability of the detector to measure differential movement of proteins when largely disproportionate ratios of protein to ligand are involved. […] Generally, an IC50 correlates well with a K D when a small molecule competes for binding with a natural substrate for a target protein.
The resulting mixture was centrifuged at 12,000 x RPM 10 min prior to use. […] The samples were run again at 30- and 45 min. Detection of the protein was performed using the blue detection channel with excitation power set to 100% and MST set to high allowing 3 s prior to MST on to check for initial fluorescence differences, 35 s for thermophoresis, and 3 s for regeneration after MST off. Analysis was performed using M.O. Affinity Analysis Software with difference between initial fluorescence measured in the first 5 s as compared with thermophoresis at 30 s at 16 different analyte concentrations ranging from 100 μM to 100 zM and exported into Graphpad Prism v.8 using a Log inhibitor versus response for parameter fit.

SUMO-hSTING CTD [3] = target: T2, SUMO-hSTING CTD (Homo sapiens, UniProt Q86WV6, H232R); assay: Dynamic light scattering of STING oligomerization; conditions: 50 nM STING CTD; S-isomer up to 500 fM; reviewer's reading
T2 sequence (Q86WV6 155-343 H232R): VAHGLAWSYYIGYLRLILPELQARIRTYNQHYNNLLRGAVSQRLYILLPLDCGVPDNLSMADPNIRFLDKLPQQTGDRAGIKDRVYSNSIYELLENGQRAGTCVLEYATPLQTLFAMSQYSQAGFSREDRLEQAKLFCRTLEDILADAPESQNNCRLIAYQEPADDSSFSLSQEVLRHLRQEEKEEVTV
Protocol: (B) DLS was performed for 2 h (n = 960 measurements) with 50 nM STING exposed to analytes. […] Blue blocks indicate size counts as a percentage to overall mass over selected mass ranges. […] Measurements were made using a Malvern Zetasizer Nano ZS set to 40 measurements at 1 s/measurement and 24 runs.

[4] = tested on: p-IRF3 in HEK293S cells (hSTING pathway); assay: Phospho-IRF3 Western blot in HEK293S cells with diABZI3; assay type: cell-based, human; conditions: 100 fM compound, 100 nM diABZI3, preliminary
Protocol: HEK293T cells transfected with hSTINGWT cells were seeded in a 6-well plate in DMEM
(supplemented with 10% heat-inactivated fetal bovine serum, 1X Corning Penicillin-Streptomycin
solution and 0.01mg/mL Blasticidin). Upon reaching ~80% confluence, cells were pretreated with
varying concentrations of CXL in FBS-free DMEM for 2 hours. This was followed by treatment
with diABZI3 (100nM) for 1 hour. The cells were scraped, harvested by centrifugation at 1000 x g
for 3 mins. The resulting pellet is resuspended in 1X PBS with 1X Halt protease & phosphatase
inhibitor and 1% NP-40. Cell lysis was performed by probe sonication. The cell lysate is further
denatured in 1X SDS loading buffer by boiling for 10 mins and separated by SDS-PAGE (4-20%
gel). The separated proteins were electrically transferred to a PVDF membranes separately,
which was probed with primary (α-pIRF3, α-IRF3 & α-STING) and secondary (goat anti-rabbit IR
dye 680 & goat anti-mouse IR dye 800CW) antibodies. The blots were visualized using a LICOR
Image Analyzer. All the experiments were performed at least in duplicate.

His-hSTING CTD = target: T3, His-hSTING CTD (Homo sapiens, UniProt Q86WV6, H232R); assay: Surface plasmon resonance; assay type: binding; conditions: read-out: KD (SPR)
T3 construct: purchased Invivogen (USA) or Cayman Chemicals (USA)
T3 sequence (Q86WV6 153-340 H232R): as the sequence (Q86WV6 153-340 H232R) above
Protocol: SPR was employed for binding measurements using the His-tagged hSTING^WT CDN domain. A GE Healthcare Biacore T200 was equipped with a Ni-NTA chip. […] The sensorgrams were analyzed using Biacore T200 Software 3.0 and steady state was measured at 4 s before injection stop, exported into Graphpad, and fit versus concentration using a one site specific binding model to calculate the apparent equilibrium dissociation constant (K D). Where appropriate, kinetics were measured using a 1:1 Langmuir binding model with R max set to local to obtain the association rate (K on), dissociation (K off)

SUMO-hSTING CTD [5] = target: T2, SUMO-hSTING CTD; assay: Isothermal titration calorimetry; assay type: binding; set-up: human STING (amino acid 155–343) was synthesized and subcloned into pET28a vector; made in house; host or cells: E. coli BL21(DE3)
Description: In order to further explore the interaction between CXL and hSTING CTD, we employed Isothermal calorimetry (ITC) to measure the heat evolved accompanying CXL’s effect on SUMO-hSTING^WT CTD. […] In Figure A, we show the ITC data we obtained. […]. […] In Figure B, we also find that the binding isotherm is far from steady state or equilibrium, and thus, we could not obtain reliable thermodynamic parameters. Nonetheless, a significant amount of heat was released in the process of CXL interacting with the hSTING CTD. On the other hand, we were most interested in ITC measurements taken at femtomolar concentrations, given the biophysical experiments and in cellulo studies already described. Initial experiments treating the hSTING CTD with femtomolar concentrations of CXL were unsuccessful, likely due to the insensitivity of the instrument. […]. MicroCal ITC200 instrument (Malvern Pananalytical) was used to assess STING and CXL interactions. Both recombinantly purified STING domains (residues 155–343) containing a SUMO tag and CXL were buffer-exchanged and made in the same buffer composition, respectively, to avoid buffer mismatch. The same buffer cocktail was used in all ITC experiments, containing 25 mM HEPES (pH, 7.4), 150 mM NaCl, 5% glycerol, 0.5 mM TCEP, and 5% DMSO. STING protein from −80 °C aliquots was spun down at 12,000 RPM for 5–10 min before each run to remove any aggregates, diluted into the ITC buffer above (either as 40 μM STING alone or as 40 μM STING plus 20 μM 2,3-cGAMP), and loaded into the cell. CXL at various concentrations for different experiments was loaded into the syringe (Hamilton). For the control and reference, an ITC buffer devoid of CXL was used. ITC experiments were conducted at 25 °C using an initial 0.4 μL injection and 19 subsequent injections of 2 μL each at 150 s intervals. Heat of dilution (differential power) of the 19 injections resulting from the binding event was fitted into the nonlinear least-squares equation incorporated in the MicroCal ITC200 analysis software. The K D and other thermodynamic parameters were derived from curve fitting using MicroCal software.

STING CTD = target: STING CTD; set-up: method as in not given; conditions: ref not given; read-out: KD previously reported (ITC); cited from earlier work
STING = tested on: STING; set-up: method as in Ergun et al.; conditions: ref Ergun et al., cited from earlier work
[6] = target: the molecule itself; assay: dynamic light scattering; 50 nM STING with 50 nM 2′,3′-cGAMP and a titrated range of analyte (CXL, CXN, H-151), HBS-P pH 7.4, 2 h
[7] = 500 μM c-diGMP to 40 μM hSTING CTD

Molecule: Nc1nc2c(ncn2C2OC3COP(=O)(O)OC4C(COP(=O)(O)OC2C3O)OC(n2cnc3c(N)ncnc32)C4O)c(=O)[nH]1 (stereo not drawn) [2′,3′-cGAMP, cyclic guanosine-(2′→5′)-monophosphate-adenosine-(3′→5′)-monophosphate, reference compound]
Induction of IFN-β production [1]: 7.4 fold

Molecule: Cc1c(Cl)cccc1Nc1ncccc1C(=O)OCCCCOC(=O)c1cccnc1Nc1cccc(Cl)c1C [Compound 14]
Activity in MST assay [2]: quite active

B1: His-SUMO-TEV-hSTING CTD (domain or fragment, human, UniProt Q86WV6 155-343, looked up)
chain: VAHGLAWSYYIGYLRLILPELQARIRTYNQHYNNLLRGAVSQRLYILLPLDCGVPDNLSMADPNIRFLDKLPQQTGDHAGIKDRVYSNSIYELLENGQRAGTCVLEYATPLQTLFAMSQYSQAGFSREDRLEQAKLFCRTLEDILADAPESQNNCRLIAYQEPADDSSFSLSQEVLRHLRQEEKEEVTV
notes: human STING (stimulator of interferon genes), C-terminal domain, amino acids 155-343, wild type (R232) allele; a TEV site lies between SUMO and STING by the construct's name; Synthetic gene in pET28a; also called SUMO-hSTING CTD; SUMO-hSTING^WT CTD; source: E. coli BL21(DE3), purified (Ni-NTA); not shown: His6, N-terminal, kept; SUMO, N-terminal, kept
binding result [6]: binds

Further lines, with some results ahead:

Activity in MST assay [2]: an effect at higher concentrations
Effect of enantiomers on protein aggregate size (SUMO-hSTING CTD [3]): no effect
Molecule: Cc1c(Cl)cccc1Nc1ncccc1C(=O)OC[C@@H](O)CO (single isomer, unassigned) [S-enantiomer, S-clonixeril]
Effect on p-IRF3 [4]: no effect

Activity in MST assay [2]: subfemtomolar activity
Effect of enantiomers on protein aggregate size (SUMO-hSTING CTD [3]): slightly less potent
Molecule: Cc1c(Cl)cccc1Nc1ncccc1C(=O)OC[C@H](O)CO (single isomer, unassigned) [R-enantiomer, R-clonixeril]
Effect on p-IRF3 [4]: agonistic

KD (Table S1, Thermophoresis) ([2]; +50 nM 23cGAMP): No shift
Molecule: Cc1cccc(Nc2ccccc2C(=O)OCC(O)CO)c1C (stereo not drawn) [MFE, mefenamic acid glycerol ester]
Activity in MST assay [2]: no indication of activity at any concentration below 1 μM

Kd (His-hSTING CTD): 4780 ± 1650 nM
ΔH0 (ITC) (SUMO-hSTING CTD [5]; [7]): -24.6 kcal/mol
ΔS0 (ITC) (SUMO-hSTING CTD [5]; [7]): −56.5 cal/mol/deg
Kd (SUMO-hSTING CTD [5]; read-out: KD (ITC)): 2170 nM
Molecule: Nc1nc2c(ncn2C2OC3COP(=O)(O)OC4C(COP(=O)(O)OC3C2O)OC(n2cnc3c(=O)[nH]c(N)nc32)C4O)c(=O)[nH]1 (stereo not drawn) [c-diGMP, cyclic di-GMP, reference compound]
Kd (STING CTD): 3700 nM
Hill coefficient for STING activation (STING): 2.6
IC50 (STING; read-out: IC50 for inhibition of the action of 2′,3′-cGAMP): ~800 nM
